The structures appear in SMILES notation.

The target in the first assay is HSD2 (Homo sapiens (Human), UniProt P80365). Put plainly: HSD2 activity: cortisol conversion in human descending colon organoid monolayer cultures (Example 112).
Chain of HSD2 (P80365 whole entry): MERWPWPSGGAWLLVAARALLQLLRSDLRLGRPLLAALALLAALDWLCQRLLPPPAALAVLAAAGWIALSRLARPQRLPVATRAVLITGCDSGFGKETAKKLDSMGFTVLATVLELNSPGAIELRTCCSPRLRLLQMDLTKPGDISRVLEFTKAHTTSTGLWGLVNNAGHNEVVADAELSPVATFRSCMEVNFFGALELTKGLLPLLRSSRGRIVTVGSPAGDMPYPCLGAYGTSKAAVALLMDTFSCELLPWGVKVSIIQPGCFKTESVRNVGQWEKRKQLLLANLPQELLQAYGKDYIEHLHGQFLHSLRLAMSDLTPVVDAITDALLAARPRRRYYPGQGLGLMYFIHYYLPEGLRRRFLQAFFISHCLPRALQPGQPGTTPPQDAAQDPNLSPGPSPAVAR
Conditions: not given
By IC50 is commonly meant the point on the concentration scale where inhibition reaches its midpoint. Lower therefore signals greater potency in that assay. In turn, `COCCOCCOCCOCCC(=O)O[C@H]1CC[C@@]2(C)[C@@H](CC[C@]3(C)[C@@H]2C(=O)C=C2[C@@H]4C[C@@](C)(C(=O)O)CC[C@]4(C)CC[C@]23C)[C@]1(C)C(=O)O` [Compound 190-3, (2S,4aS,6aS,6bR,8aR,9S,10S,12aS,12bR,14bR)-10-((2,5,8,11-tetraoxatetradecan-14-oyl)oxy)-2,4a,6a,6b,9,12a-hexamethyl-13-oxo-1,2,3,4,4a,5,6,6a,6b,7,8,8a,9,10,11,12,12a,12b,13,14b-icosahydropicene-2,9-dicarboxylic acid] registered an IC50 greater than 10 µM.

Staying with this assay, now noted: human descending colon epithelial cultures on transwells; 30 minute pre-incubation, then 40 nM cortisol for four hours; cortisol HTRF assay.
As usually defined, the pIC50 is the IC50 on a negative log10 scale, so that one unit is a factor of ten. Consider `CC1OC(=O)OC1COC(=O)[C@H]1CC[C@]2(C)[C@H]3C(=O)C=C4[C@@H]5C[C@@](C)(C(=O)O)CC[C@]5(C)CC[C@@]4(C)[C@]3(C)CC[C@H]2C1(C)C` (stereo partly drawn) [Compound 178-1, (2S,4aS,6aS,6bR,8aS,10S,12aS,12bR,14bR)-2,4a,6a,6b,9,9,12a-Heptamethyl-10-(((5-methyl-2-oxo-1,3-dioxolan-4-yl)methoxy)carbonyl)-13-oxo-1,2,3,4,4a,5,6,6a,6b,7,8,8a,9,10,11,12,12a,12b,13,14b-icosahydropicene-2-carboxylic acid], for which the pIC50 amounted to 6.3. The same measure, in the same setting: the value for `CSCC(=O)O[C@H]1CC[C@@]2(C)[C@@H](CC[C@]3(C)[C@@H]2C(=O)C=C2[C@@H]4C[C@@](C)(C(=O)O)CC[C@]4(C)CC[C@]23C)[C@]1(C)C(=O)OCc1oc(=O)oc1C(C)C` [Compound 701-1, (2S,4aS,6aS,6bR,8aR,9S,10S,12aS,12bR,14bR)-2,4a,6a,6b,9,12a-hexamethyl-10-{[2-(methylsulfanyl)acetyl]oxy}-13-oxo-9-({[2-oxo-5-(propan-2-yl)-2H-1,3-dioxol-4-yl]methoxy}carbonyl)-1,2,3,4,4a,5,6,6a,6b,7,8,8a,9,10,11,12,12a,12b,13,14b-icosahydropicene-2-carboxylic acid] was 7; that for `Cc1oc(=O)oc1COC(=O)[C@]1(C)[C@@H](OC(=O)c2ccccc2)CC[C@@]2(C)[C@H]1CC[C@]1(C)[C@@H]2C(=O)C=C2[C@@H]3C[C@@](C)(C(=O)O)CC[C@]3(C)CC[C@]21C` [Compound 197-2, (2S,4aS,6aS,6bR,8aR,9S,10S,12aS,12bR,14bR)-10-(Benzoyloxy)-2,4a,6a,6b,9,12a-hexamethyl-9-(((5-methyl-2-oxo-1,3-dioxol-4-yl)methoxy)carbonyl)-13-oxo-1,2,3,4,4a,5,6,6a,6b,7,8,8a,9,10,11,12,12a,12b,13,14b-icosahydropicene-2-carboxylic acid] was 7.9; that for `CC(=O)O[C@]1(C)CC[C@@]2(C)[C@@H](CC[C@]3(C)[C@@H]2C(=O)C=C2[C@@H]4C[C@@](C)(C(=O)O)CC[C@]4(C)CC[C@]23C)[C@]1(C)C(=O)OCc1oc(=O)oc1C(C)C` [Compound 702-1, (2S,4aS,6aS,6bR,8aR,9S,10R,12aS,12bR,14bR)-10-(acetyloxy)-2,4a,6a,6b,9,10,12a-heptamethyl-13-oxo-9-({[2-oxo-5-(propan-2-yl)-2H-1,3-dioxol-4-yl]methoxy}carbonyl)-1,2,3,4,4a,5,6,6a,6b,7,8,8a,9,10,11,12,12a,12b,13,14b-icosahydropicene-2-carboxylic acid] was 6.4. On the same count and under the same terms, the value for `CC1(C)[C@@H](C(=O)OCC2COC(=O)O2)CC[C@]2(C)[C@H]3C(=O)C=C4[C@@H]5C[C@@](C)(C(=O)O)CC[C@]5(C)CC[C@@]4(C)[C@]3(C)CC[C@@H]12` (stereo partly drawn) [Compound 700-1, (2S,4aS,6aS,6bR,8aS,10S,12aS,12bR,14bR)-2,4a,6a,6b,9,9,12a-heptamethyl-13-oxo-10-{[(2-oxo-1,3-dioxolan-4-yl)methoxy]carbonyl}-1,2,3,4,4a,5,6,6a,6b,7,8,8a,9,10,11,12,12a,12b,13,14b-icosahydropicene-2-carboxylic acid] was 6.1; that for `CCc1oc(=O)oc1COC(=O)[C@]1(C)[C@@H](OC(C)=O)CC[C@@]2(C)[C@H]1CC[C@]1(C)[C@@H]2C(=O)C=C2[C@@H]3C[C@@](C)(C(=O)O)CC[C@]3(C)CC[C@]21C` [Compound 316-1, (2S,4aS,6aS,6bR,8aR,9S,10S,12aS,12bR,14bR)-10-acetoxy-9-(((5-ethyl-2-oxo-1,3-dioxol-4-yl)methoxy)carbonyl)-2,4a,6a,6b,9,12a-hexamethyl-13-oxo-1,2,3,4,4a,5,6,6a,6b,7,8,8a,9,10,11,12,12a,12b,13,14b-icosahydropicene-2-carboxylic acid] was 7.5; that for `CCCc1oc(=O)oc1COC(=O)[C@]1(C)[C@@H](OC(C)=O)CC[C@@]2(C)[C@H]1CC[C@]1(C)[C@@H]2C(=O)C=C2[C@@H]3C[C@@](C)(C(=O)O)CC[C@]3(C)CC[C@]21C` [Compound 706-1, (2S,4aS,6aS,6bR,8aR,9S,10S,12aS,12bR,14bR)-10-(acetyloxy)-2,4a,6a,6b,9,12a-hexamethyl-13-oxo-9-{[(2-oxo-5-propyl-2H-1,3-dioxol-4-yl)methoxy]carbonyl}-1,2,3,4,4a,5,6,6a,6b,7,8,8a,9,10,11,12,12a,12b,13,14b-icosahydropicene-2-carboxylic acid] was 6.7. `COCO[C@H]1CC[C@@]2(C)[C@@H](CC[C@]3(C)[C@@H]2C(=O)C=C2[C@@H]4C[C@@](C)(C(=O)O)CC[C@]4(C)CC[C@]23C)[C@]1(C)C(=O)O` [(2S,4aS,6aS,6bR,8aR,9S,10S,12aS,12bR,14bR)-10-(methoxymethoxy)-2,4a,6a,6b,9,12a-hexamethyl-13-oxo-1,2,3,4,4a,5,6,6a,6b,7,8,8a,9,10,11,12,12a,12b,13,14b-icosahydropicene-2,9-dicarboxylic acid] gave a pIC50 of 5.1. `CSCC(=O)O[C@H]1CC[C@@]2(C)[C@@H](CC[C@]3(C)[C@@H]2C(=O)C=C2[C@@H]4C[C@@](C)(C(=O)O)CC[C@]4(C)CC[C@]23C)[C@]1(C)C(=O)O` [(2S,4aS,6aS,6bR,8aR,9S,10S,12aS,12bR,14bR)-2,4a,6a,6b,9,12a-hexamethyl-10-{[2-(methylsulfanyl)acetyl]oxy}-13-oxo-1,2,3,4,4a,5,6,6a,6b,7,8,8a,9,10,11,12,12a,12b,13,14b-icosahydropicene-2,9-dicarboxylic acid] displayed a pIC50 of 5.4.

The molecule `Cc1oc(=O)oc1COC(=O)CO[C@H]1CC[C@]2(C)[C@H]3C(=O)C=C4[C@@H]5C[C@@](C)(C(=O)O)CC[C@]5(C)CC[C@@]4(C)[C@]3(C)CC[C@H]2C1(C)C` [Compound 712-1, (2S,4aS,6aS,6bR,8aR,10S,12aS,12bR,14bR)-2,4a,6a,6b,9,9,12a-heptamethyl-10-{2-[(5-methyl-2-oxo-2H-1,3-dioxol-4-yl)methoxy]-2-oxoethoxy}-13-oxo-1,2,3,4,4a,5,6,6a,6b,7,8,8a,9,10,11,12,12a,12b,13,14b-icosahydropicene-2-carboxylic acid] showed a negative-log IC50 (pIC50) of 5.

Molecule `CC(=O)O[C@]1(C)CC[C@@]2(C)[C@@H](CC[C@]3(C)[C@@H]2C(=O)C=C2[C@@H]4C[C@@](C)(C(=O)O)CC[C@]4(C)CC[C@]23C)[C@]1(C)C(=O)OCc1oc(=O)oc1C` [Compound 704-1, (2S,4aS,6aS,6bR,8aR,9S,10R,12aS,12bR,14bR)-10-(acetyloxy)-2,4a,6a,6b,9,10,12a-heptamethyl-9-{[(5-methyl-2-oxo-2H-1,3-dioxol-4-yl)methoxy]carbonyl}-13-oxo-1,2,3,4,4a,5,6,6a,6b,7,8,8a,9,10,11,12,12a,12b,13,14b-icosahydropicene-2-carboxylic acid] showed a pIC50 of 6.3. The same measure, in the same setting: the value for `CC1(C)[C@@H](OCC(=O)OCc2oc(=O)oc2CO)CC[C@]2(C)[C@H]3C(=O)C=C4[C@@H]5C[C@@](C)(C(=O)O)CC[C@]5(C)CC[C@@]4(C)[C@]3(C)CC[C@@H]12` [Compound 711-1, (2S,4aS,6aS,6bR,8aR,10S,12aS,12bR,14bR)-10-(2-{[5-(hydroxymethyl)-2-oxo-2H-1,3-dioxol-4-yl]methoxy}-2-oxoethoxy)-2,4a,6a,6b,9,9,12a-heptamethyl-13-oxo-1,2,3,4,4a,5,6,6a,6b,7,8,8a,9,10,11,12,12a,12b,13,14b-icosahydropicene-2-carboxylic acid] was 5.8. On the same count and under the same terms, the value for `Cc1oc(=O)oc1COC(=O)[C@]1(C)[C@@H](OC(=O)CO)CC[C@@]2(C)[C@H]1CC[C@]1(C)[C@@H]2C(=O)C=C2[C@@H]3C[C@@](C)(C(=O)O)CC[C@]3(C)CC[C@]21C` [Compound 244-1, (2S,4aS,6aS,6bR,8aR,9S,10S,12aS,12bR,14bR)-10-(2-Hydroxyacetoxy)-2,4a,6a,6b,9,12a-hexamethyl-9-(((5-methyl-2-oxo-1,3-dioxol-4-yl)methoxy)carbonyl)-13-oxo-1,2,3,4,4a,5,6,6a,6b,7,8,8a,9,10,11,12,12a,12b,13,14b-icosahydropicene-2-carboxylic acid] was 6.8; that for `CC(=O)O[C@H]1CC[C@@]2(C)[C@@H](CC[C@]3(C)[C@@H]2C(=O)C=C2[C@@H]4C[C@@](C)(C(=O)O)CC[C@]4(C)CC[C@]23C)[C@]1(C)C(=O)O` [(2S,4aS,6aS,6bR,8aR,9S,10S,12aS,12bR,14bR)-10-(acetyloxy)-2,4a,6a,6b,9,12a-hexamethyl-13-oxo-1,2,3,4,4a,5,6,6a,6b,7,8,8a,9,10,11,12,12a,12b,13,14b-icosahydropicene-2,9-dicarboxylic acid] was 5.9; that for `C[C@]1(C(=O)O)CC[C@]2(C)CC[C@]3(C)C(=CC(=O)[C@@H]4[C@@]5(C)CC[C@H](OC(=O)C6CC6)[C@@](C)(C(=O)O)[C@@H]5CC[C@]43C)[C@@H]2C1` [(2S,4aS,6aS,6bR,8aR,9S,10S,12aS,12bR,14bR)-10-(cyclopropanecarbonyloxy)-2,4a,6a,6b,9,12a-hexamethyl-13-oxo-1,2,3,4,4a,5,6,6a,6b,7,8,8a,9,10,11,12,12a,12b,13,14b-icosahydropicene-2,9-dicarboxylic acid] was 5.8. On the same count and under the same terms, the value for `COCC(=O)O[C@H]1CC[C@@]2(C)[C@@H](CC[C@]3(C)[C@@H]2C(=O)C=C2[C@@H]4C[C@@](C)(C(=O)O)CC[C@]4(C)CC[C@]23C)[C@]1(C)C(=O)OCc1oc(=O)oc1C` [Compound 709-1, (2S,4aS,6aS,6bR,8aR,9S,10S,12aS,12bR,14bR)-10-[(2-methoxyacetyl)oxy]-2,4a,6a,6b,9,12a-hexamethyl-9-{[(5-methyl-2-oxo-2H-1,3-dioxol-4-yl)methoxy]carbonyl}-13-oxo-1,2,3,4,4a,5,6,6a,6b,7,8,8a,9,10,11,12,12a,12b,13,14b-icosahydropicene-2-carboxylic acid] was 7.2.

The values above are taken from US20240209019A1, “COMPOUNDS AND METHODS FOR TREATING HYPERKALEMIA” (ARDELYX, INC., priority 2019, published 2024).
